Several values for one entry are separate records, joined by “and”; a condition that tells them apart may be missing. Identical values can stand only once.
Columns and labels:
[1] = Solubility in D2O by 1H NMR (Me2SO2 internal standard); assay type: physicochemical; conditions: for Solubility: 21 °C
Experimental: • (a) Solubility in D2O. A suspension of the selected diiron compound (3–5 mg) in a D2O solution (ca. 1 mL) containing Me2SO2 (3.36 × 10^−3 M) as internal standard was vigorously stirred at 21 °C for 1.5 h. The resulting saturated solution was filtered over celite, transferred into an NMR tube and then analyzed by ^1H NMR spectroscopy (delay time = 3 s; number of scans = 20). The concentration (solubility) was calculated by the relative integral (related to Cp and/or NMe signals) with respect to Me2SO2 (δ = 3.14 ppm). • (b) Stability in DMSO-d6/D2O solution. The selected diiron compound (ca. 4 mg) was added of 1 mL of D2O (3a,c) or DMSO-d6/D2O (2:1 v/v) mixture (2a,c, 3b, 4a–c, 5a–c, 6a–c, 7), containing Me2SO2 (3.36 × 10^−3 M). The resulting mixture was stirred for 30 min and then filtered over celite; the filtrated solution was transferred into an NMR tube. The sample was analyzed by ^1H NMR (time = 0) and then heated at 37 °C for 72 h. After cooling to room temperature, the solution was separated from a small amount of solid by filtration over celite, and the new ^1H NMR spectrum was recorded (delay time = 3 s; number of scans = 20). In every case, no newly formed organometallic species was detected. The amount of starting material in solution (% with respect to the initial spectrum) was calculated by the relative integral (vs. Cp and/or NMe signals) with respect to Me2SO2 as internal standard.

[2] = Octanol–water partition coefficient (shake-flask, UV–Vis); assay type: physicochemical; conditions: 21 °C
Experimental: • (c) Octanol–water partition coefficients (Log Pow). Partition coefficients (Pow; IUPAC: KD partition constant), defined as Pow = corg/caq, where corg and caq are molar concentrations of the selected compound in the organic and aqueous phase, respectively, were determined by the shake-flask method and UV–Vis measurements. Deionized water and 1-octanol were vigorously stirred for 24 h to enable saturation of both phases, then separated by centrifugation. A stock solution of the selected diiron compound (ca. 2 mg; 2a–c, 3b, 4a–c, 5a, 5c, 6b,c, 7) was prepared by first adding acetone (50 μL, to help solubilization), followed by water-saturated octanol (2.5 mL). The solution was diluted with water-saturated octanol (ca. 1:3 v/v ratio, cFe2 ≈ 10^−4 M, so that 1.5 ≤ A ≤ 2.0 at λmax) and the UV–Vis spectrum was recorded (A^0org). An aliquot of the solution (Vorg = 1.2 mL) was transferred into a test tube and octanol-saturated water (Vorg = Vaq = 1.2 mL) was added. The mixture was vigorously stirred for 15 min at 21 °C and then centrifuged (5000 rpm, 10 min). The UV–Vis spectrum of the organic phase was recorded (A^forg) and the partition coefficient was calculated as Pow = A^forg/(A^0org − A^forg), where A^0org and A^forg are the absorbance in the organic phase before and after partition with the aqueous phase, respectively. An inverse procedure was followed for 3a, 3c, 5b and 6a, starting from a solution of the compound in octanol-saturated water. The partition coefficient was calculated as Pow = (A^0aq − A^faq)/A^faq where A^0aq and A^faq are the absorbance in the aqueous phase before and after partition with the organic phase, respectively. The wavelength of the maximum absorption of each compound (ca. 300 nm) was used for UV–Vis quantitation. The procedure was repeated three times for each sample (from the same stock solution); results are given as mean ± standard deviation.

[3] = system: mouse embryo fibroblasts Balb/3T3 clone A31; experiment: Cytotoxicity, WST-1 cell viability assay, Balb/3T3 clone A31; assay type: cell-based; conditions: 72 h exposure
Experimental: In vitro cytotoxicity investigations were carried out by using human ovarian carcinoma cisplatin-sensitive A2780 (ECACC93112519), human ovarian carcinoma cisplatin-resistant A2780cisR (ECACC 93112517) and mouse embryo fibroblasts Balb/3T3 clone A31 (ATCC CCL-163) cell lines. A2780 and A2780cisR were purchased from the European Collection of Authenticated Cell Cultures (ECACC), and Balb/3T3 clone A31 cell line from the American Type Culture Collection (ATCC).
A2780 and A2780cisR cells were routinely cultured in RPMI 1640 (Merck) containing 2 mM of L-glutamine (Merck), 1% of penicillin/streptomycin solution (Merck—10 000 U mL^−1: 10 mg mL^−1), 10% of fetal bovine serum (Merck—FBS) and antimycotic (InvivoGen, USA), and Balb/3T3 clone A31 in Dulbecco’s modified Eagle medium (Merck—DMEM) supplemented with 4 mM of L-glutamine, 1% of penicillin/streptomycin solution, 10% of calf serum (Merck) and antimycotic. […] The cultures were maintained at 37 °C and in a 5% CO2-enriched atmosphere.
A2780, A2780cisR and Balb/3T3 clone A31 cells were seeded in 96-well tissue culture polystyrene plates at a concentration of 3 × 10^3, 6 × 10^3 and 1 × 10^3 cells per well, respectively. After overnight incubation, the cells were treated with different concentrations (0–100 µM) of the selected compounds for 72 h at 37 °C in a 5% atmosphere of CO2. Stock solutions of compounds were prepared in DMSO and sequentially diluted in medium (final DMSO concentration of 0.5%). […] At the end of the incubation time, cell viability was assessed by means of WST-1 tetrazolium salt reagent (Roche). Briefly, cells were incubated for 4 h with the tetrazolium salt reagent diluted 1:10, at 37 °C and 5% CO2. Measurements of formazan dye absorbance, which directly correlates with the number of viable cells, were carried out with a micro-plate reader (Biorad) at 450 nm, using 655 nm as reference wavelength. The 50% inhibitory concentration (IC50) refers to compound concentration at which 50% of cell death is observed with respect to the control. For each tested compound, assay was performed on triplicate. The concentration effect curves were generated by nonlinear regression curves (GraphPad Prism Software, 2021) and the data reported as mean ± standard deviation.

Row | Substance | Solubility in D2O (in words) [1] | Log Pow [2] | IC50 [3] | Solubility [1]
1 | [Fe2Cp2(CO)(μ-CO){μ-η^1:η^3-C^3(Me)C^2(Me)C^1N(CH2Ph)2}]CF3SO3 [Compound 2c] | almost insoluble in D2O | 0.56 ± 0.08 | 18 ± 3 µM | –
2 | [Fe2Cp2(CO)(μ-CO){μ-η^1:η^3-C^3(Me)C^2(Me)C^1NMe(2-naphthyl)}]CF3SO3 [Compound 7] | almost insoluble in D2O | 0.38 ± 0.02 | 48 ± 3 µM | –
3 | [Fe2Cp2(CO)(μ-CO){μ-η^1:η^3-C^3(Me)C^2(Me)C^1NMe(4-C6H4OMe)}]CF3SO3 [Compound 6c] | – | −0.21 ± 0.01 | > 100 µM | 1.06 × 10^−3 mol·L^−1 and 0.69 g·L^−1
4 | [Fe2Cp2(CO)(μ-CO){μ-η^1:η^3-C^3(Me)C^2(Me)C^1NMe(CH2Ph)}]CF3SO3 [Compound 5b] | – | −0.43 ± 0.01 | > 100 µM | 1.52 × 10^−3 mol·L^−1 and 0.96 g·L^−1
5 | [Fe2Cp2(CO)(μ-CO){μ-η^1:η^3-C^3(Me)C^2(Me)C^1NMe(Cy)}]CF3SO3 [Compound 4c] | – | −0.17 ± 0.01 | 94 ± 16 µM | 2.63 × 10^−3 mol·L^−1 and 1.64 g·L^−1
6 | [Fe2Cp2(CO)(μ-CO){μ-η^1:η^3-C^3(Me)C^2HC^1NMe(Cy)}]CF3SO3 [Compound 4a] | – | −0.29 ± 0.03 | > 100 µM | 3.49 × 10^−3 mol·L^−1 and 2.13 g·L^−1
7 | [Fe2Cp2(CO)(μ-CO){μ-η^1:η^3-C^3(Ph)C^2HC^1NMe(4-C6H4OMe)}]CF3SO3 [Compound 6b] | – | 0.37 ± 0.04 | 39 ± 3 µM | –
8 | [Fe2Cp2(CO)(μ-CO){μ-η^1:η^3-C^3(Ph)C^2HC^1NMe(CH2CH = CH2)}]CF3SO3 [Compound 3b] | – | −0.09 ± 0.01 | > 100 µM | 2.34 × 10^−3 mol·L^−1 and 1.48 g·L^−1
